Reference: ChEMBL document CHEMBL5500393, “Discovery and Optimization of Novel SaFabI Inhibitors as Specific Therapeutic Agents for MRSA Infection” (J Med Chem, 2024)
Converted amounts (≈) assume the structure as drawn.

Experiments:
[1] = molecular target: T1, Enoyl-[acyl-carrier-protein] reductase [NADPH] FabI (Staphylococcus aureus) (UniProt Q6GI75); test: Inhibition of N-terminal his 6 tagged Staphylococcus aureus Fabi (1 to […] residues) expressed in Escherichia coli BL21 at 1 uM incubated for 30 mins in presence of NADPH by fluorescence based microplate reader analysis relative to control
T1 sequence (whole entry): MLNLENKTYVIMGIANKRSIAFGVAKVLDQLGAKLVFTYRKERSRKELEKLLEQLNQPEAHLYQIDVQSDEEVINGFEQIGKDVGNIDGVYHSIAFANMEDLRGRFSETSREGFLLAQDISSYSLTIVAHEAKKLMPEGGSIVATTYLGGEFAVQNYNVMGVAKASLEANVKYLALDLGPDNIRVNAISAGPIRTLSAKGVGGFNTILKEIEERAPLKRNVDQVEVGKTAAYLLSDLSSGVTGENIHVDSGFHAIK

Enterococcus faecium = test: Antimicrobial activity against Enterococcus faecium ATCC19434 measured after 24 hrs by CLSI protocol based microdilution method; format: functional
Staphylococcus aureus [2] = test: Antimicrobial activity against […] Staphylococcus aureus USA300 measured after 24 hrs by CLSI protocol based microdilution method; format: functional
Pseudomonas aeruginosa = test: Antimicrobial activity against Pseudomonas aeruginosa PAO1 measured after 24 hrs by CLSI protocol based microdilution method; format: functional
Escherichia coli = test: Antimicrobial activity against Escherichia coli ATCC25922 measured after 24 hrs by CLSI protocol based microdilution method; format: functional
Acinetobacter baumannii = test: Antimicrobial activity against Acinetobacter baumannii ATCC19606 measured after 24 hrs by CLSI protocol based microdilution method; format: functional
Staphylococcus aureus [3] = test: Antimicrobial activity against […] Staphylococcus aureus ATCC33591 measured after 24 hrs by CLSI protocol based microdilution method; format: functional
Staphylococcus aureus [4] = test: Antimicrobial activity against […] Staphylococcus aureus NRS271 measured after 24 hrs by CLSI protocol based microdilution method; format: functional
[5] = molecular target: T1, Enoyl-[acyl-carrier-protein] reductase [NADPH] FabI (Staphylococcus aureus); test: Inhibition of N-terminal his 6 tagged Staphylococcus aureus Fabi (1 to […] residues) expressed in Escherichia coli BL21 at 10 uM incubated for 30 mins in presence of NADPH by fluorescence based microplate reader analysis relative to control
Staphylococcus aureus [6] = test: Antimicrobial activity against methicillin-susceptible Staphylococcus aureus ATCC29213 measured after 24 hrs by CLSI protocol based microdilution method; format: functional
Staphylococcus aureus [7] = test: Antimicrobial activity against methicillin-susceptible Staphylococcus aureus ATCC25923 measured after 24 hrs by CLSI protocol based microdilution method; format: functional
[8] = molecular target: T2, Enoyl-[acyl-carrier-protein] reductase [NADPH] FabI (Staphylococcus aureus, UniProt Q6GI75); test: Inhibition of N-terminal his 6 tagged Staphylococcus aureus Fabi (1 to […] residues) expressed in Escherichia coli BL21 incubated for 30 mins in presence of NADPH by fluorescence based microplate reader analysis
T2 sequence (Q6GI75 whole entry): T1 sequence (whole entry)

Staphylococcus aureus [9] = test: Antimicrobial activity against […] Staphylococcus aureus ATCC43300 measured after 24 hrs by CLSI protocol based microdilution method; format: functional
Enterococcus faecalis = test: Antimicrobial activity against Enterococcus faecalis ATCC29212 measured after 24 hrs by CLSI protocol based microdilution method; format: functional
Candida albicans = test: Antimicrobial activity against Candida albicans SC5314 measured after 48 hrs by CLSI protocol based microdilution method; format: functional

Cc1cccc(N2CC(c3nc4ccccc4n3C)CC2=O)c1Cl (configuration not stated)
inhibition [1]: 47.3%
MIC (Enterococcus faecium): > 32 µg/mL
MIC (Staphylococcus aureus [2]): 16 µg/mL (≈ 47.1 µM)
MIC (Pseudomonas aeruginosa): > 32 µg/mL
MIC (Escherichia coli): > 32 µg/mL
MIC (Acinetobacter baumannii): > 32 µg/mL
MIC (Staphylococcus aureus [3]): 8 µg/mL (≈ 23.5 µM)
MIC (Staphylococcus aureus [4]): 8 µg/mL (≈ 23.5 µM)
inhibition [5]: 95.2%
MIC (Staphylococcus aureus [6]): 8 µg/mL (≈ 23.5 µM)
MIC (Staphylococcus aureus [7]): 16 µg/mL (≈ 47.1 µM)
IC50 [8]: 1.18 µM
MIC (Staphylococcus aureus [9]): 8 µg/mL (≈ 23.5 µM)
MIC (Enterococcus faecalis): > 32 µg/mL
MIC (Candida albicans): > 32 µg/mL

COc1ccc(N2CC(c3nc4ccccc4n3C)CC2=O)cc1Br (configuration not stated)
inhibition [1]: 9.4%
MIC (Enterococcus faecium): > 32 µg/mL
MIC (Staphylococcus aureus [2]): > 32 µg/mL
MIC (Pseudomonas aeruginosa): > 32 µg/mL
MIC (Escherichia coli): > 32 µg/mL
MIC (Acinetobacter baumannii): > 32 µg/mL
MIC (Staphylococcus aureus [3]): > 32 µg/mL
MIC (Staphylococcus aureus [4]): > 32 µg/mL
inhibition [5]: 72.3%
MIC (Staphylococcus aureus [6]): > 32 µg/mL
MIC (Staphylococcus aureus [7]): > 32 µg/mL
IC50 [8]: 3.02 µM
MIC (Staphylococcus aureus [9]): > 32 µg/mL
MIC (Enterococcus faecalis): > 32 µg/mL
MIC (Candida albicans): > 32 µg/mL

Cc1c(O)cccc1N1CC(c2nc3ccccc3n2C)CC1=O (configuration not stated)
inhibition [1]: 61.7%
MIC (Enterococcus faecium): > 32 µg/mL
MIC (Staphylococcus aureus [2]): 8 µg/mL (≈ 24.9 µM)
MIC (Pseudomonas aeruginosa): > 32 µg/mL
MIC (Escherichia coli): > 32 µg/mL
MIC (Acinetobacter baumannii): > 32 µg/mL
MIC (Staphylococcus aureus [3]): 4 µg/mL (≈ 12.4 µM)
MIC (Staphylococcus aureus [4]): 8 µg/mL (≈ 24.9 µM)
inhibition [5]: 96.9%
MIC (Staphylococcus aureus [6]): 8 µg/mL (≈ 24.9 µM)
MIC (Staphylococcus aureus [7]): 8 µg/mL (≈ 24.9 µM)
IC50 [8]: 0.65 µM
MIC (Staphylococcus aureus [9]): 8 µg/mL (≈ 24.9 µM)
MIC (Enterococcus faecalis): > 32 µg/mL
MIC (Candida albicans): > 32 µg/mL

Cn1ccc2c(N3CC(c4nc5ccccc5n4C)CC3=O)cccc21 (configuration not stated)
inhibition [1]: 9.8%
MIC (Enterococcus faecium): > 32 µg/mL
MIC (Staphylococcus aureus [2]): > 32 µg/mL
MIC (Pseudomonas aeruginosa): > 32 µg/mL
MIC (Escherichia coli): > 32 µg/mL
MIC (Acinetobacter baumannii): > 32 µg/mL
MIC (Staphylococcus aureus [3]): > 32 µg/mL
MIC (Staphylococcus aureus [4]): > 32 µg/mL
inhibition [5]: 62.1%
MIC (Staphylococcus aureus [6]): > 32 µg/mL
MIC (Staphylococcus aureus [7]): > 32 µg/mL
IC50 [8]: 8.33 µM
MIC (Staphylococcus aureus [9]): > 32 µg/mL
MIC (Enterococcus faecalis): > 32 µg/mL
MIC (Candida albicans): > 32 µg/mL

CCCn1c(C2CC(=O)N(c3cccc(Br)c3C)C2)nc2ccccc21 (configuration not stated)
inhibition [1]: 57.6%
MIC (Enterococcus faecium): > 32 µg/mL
MIC (Staphylococcus aureus [2]): 8 µg/mL (≈ 19.4 µM)
MIC (Pseudomonas aeruginosa): > 32 µg/mL
MIC (Escherichia coli): > 32 µg/mL
MIC (Acinetobacter baumannii): > 32 µg/mL
MIC (Staphylococcus aureus [3]): 8 µg/mL (≈ 19.4 µM)
MIC (Staphylococcus aureus [4]): 8 µg/mL (≈ 19.4 µM)
inhibition [5]: 99.5%
MIC (Staphylococcus aureus [6]): 4 µg/mL (≈ 9.7 µM)
MIC (Staphylococcus aureus [7]): 4 µg/mL (≈ 9.7 µM)
IC50 [8]: 0.745 µM
MIC (Staphylococcus aureus [9]): 4 µg/mL (≈ 9.7 µM)
MIC (Enterococcus faecalis): > 32 µg/mL
MIC (Candida albicans): > 32 µg/mL

Cc1c(Br)cccc1N1CC(c2nc3cc(F)c(F)cc3n2C)CC1=O (configuration not stated)
inhibition [1]: 3.2%
MIC (Enterococcus faecium): > 32 µg/mL
MIC (Staphylococcus aureus [2]): > 32 µg/mL
MIC (Pseudomonas aeruginosa): > 32 µg/mL
MIC (Escherichia coli): > 32 µg/mL
MIC (Acinetobacter baumannii): > 32 µg/mL
MIC (Staphylococcus aureus [3]): > 32 µg/mL
MIC (Staphylococcus aureus [4]): > 32 µg/mL
inhibition [5]: 66.7%
MIC (Staphylococcus aureus [6]): 32 µg/mL (≈ 76.1 µM)
MIC (Staphylococcus aureus [7]): > 32 µg/mL
IC50 [8]: 5.29 µM
MIC (Staphylococcus aureus [9]): > 32 µg/mL
MIC (Enterococcus faecalis): > 32 µg/mL
MIC (Candida albicans): > 32 µg/mL

Cn1c(C2CC(=O)N(c3cccc(Cl)c3F)C2)nc2ccccc21 (configuration not stated)
inhibition [1]: 65.4%
MIC (Enterococcus faecium): > 32 µg/mL
MIC (Staphylococcus aureus [2]): 8 µg/mL (≈ 23.3 µM)
MIC (Pseudomonas aeruginosa): > 32 µg/mL
MIC (Escherichia coli): > 32 µg/mL
MIC (Acinetobacter baumannii): > 32 µg/mL
MIC (Staphylococcus aureus [3]): 4 µg/mL (≈ 11.6 µM)
MIC (Staphylococcus aureus [4]): 8 µg/mL (≈ 23.3 µM)
inhibition [5]: 97.9%
MIC (Staphylococcus aureus [6]): 4 µg/mL (≈ 11.6 µM)
MIC (Staphylococcus aureus [7]): 4 µg/mL (≈ 11.6 µM)
IC50 [8]: 0.579 µM
MIC (Staphylococcus aureus [9]): 4 µg/mL (≈ 11.6 µM)
MIC (Enterococcus faecalis): > 32 µg/mL
MIC (Candida albicans): > 32 µg/mL

Cn1c(C2CC(=O)N(c3cccc(Br)c3OCC(F)(F)F)C2)nc2ccccc21 (configuration not stated)
inhibition [1]: 2.1%
MIC (Enterococcus faecium): > 32 µg/mL
MIC (Staphylococcus aureus [2]): > 32 µg/mL
MIC (Pseudomonas aeruginosa): > 32 µg/mL
MIC (Escherichia coli): > 32 µg/mL
MIC (Acinetobacter baumannii): > 32 µg/mL
MIC (Staphylococcus aureus [3]): > 32 µg/mL
MIC (Staphylococcus aureus [4]): > 32 µg/mL
inhibition [5]: 18.8%
MIC (Staphylococcus aureus [6]): > 32 µg/mL
MIC (Staphylococcus aureus [7]): > 32 µg/mL
MIC (Staphylococcus aureus [9]): > 32 µg/mL
MIC (Enterococcus faecalis): > 32 µg/mL
MIC (Candida albicans): > 32 µg/mL

COc1ccc(N2CC(c3nc4ccccc4n3C)CC2=O)cc1OC (configuration not stated)
inhibition [1]: 1.6%
MIC (Enterococcus faecium): > 32 µg/mL
MIC (Staphylococcus aureus [2]): > 32 µg/mL
MIC (Pseudomonas aeruginosa): > 32 µg/mL
MIC (Escherichia coli): > 32 µg/mL
MIC (Acinetobacter baumannii): > 32 µg/mL
MIC (Staphylococcus aureus [3]): > 32 µg/mL
MIC (Staphylococcus aureus [4]): > 32 µg/mL
inhibition [5]: 22.5%
MIC (Staphylococcus aureus [6]): > 32 µg/mL
MIC (Staphylococcus aureus [7]): > 32 µg/mL
MIC (Staphylococcus aureus [9]): > 32 µg/mL
MIC (Enterococcus faecalis): > 32 µg/mL
MIC (Candida albicans): > 32 µg/mL

Cc1cccc(NC(=O)CCNC(=O)CCc2nc3ccccc3n2C)c1C
inhibition [1]: 6.9%
MIC (Enterococcus faecium): > 32 µg/mL
MIC (Staphylococcus aureus [2]): > 32 µg/mL
MIC (Pseudomonas aeruginosa): > 32 µg/mL
MIC (Escherichia coli): > 32 µg/mL
MIC (Acinetobacter baumannii): > 32 µg/mL
MIC (Staphylococcus aureus [3]): > 32 µg/mL
MIC (Staphylococcus aureus [4]): > 32 µg/mL
inhibition [5]: 33.2%
MIC (Staphylococcus aureus [6]): > 32 µg/mL
MIC (Staphylococcus aureus [7]): > 32 µg/mL
MIC (Staphylococcus aureus [9]): > 32 µg/mL
MIC (Enterococcus faecalis): > 32 µg/mL
MIC (Candida albicans): > 32 µg/mL
